Patent publication US9724319B2, “Compositions and methods for the reduction or prevention of hepatic steatosis” (priority 2014, dated 2017)

What was measured:
[1] = test system: liver mass or hepatic lipid accumulation; conditions: 25 mg icariin/kg diet; corresponding to 4 mg/kg body weight/day; cited from earlier work
[2] = test system: hepatic steatosis (lipid vesicles in liver cells); assay: Histological analysis of hepatic lipid accumulation after high fat diet; conditions: Example 3; HFD mice, six weeks; therapeutic metformin; combination: leucine + metformin 0.5 g/kg
Text: (§1) Chronic high fat diet was used in C57Bl/6 mice as an experimental model of hepatic steatosis. Male C57/BL6 mice were either maintained on standard low-fat diet (control; LFD; 10% energy from fat) or placed on a high fat (HFD; 60% energy from fat, Research Diets #D12492, Research Diets, Inc, New Brunswick, N.J.) at six weeks of age to induce obesity and fatty infiltration of the liver. […] Animals were then randomized to treatments for an additional six weeks, with 10 animals per group, as specified in the following examples.
In this study, the effects of metformin alone (therapeutic dose), subtherapeutic metformin alone, subtherapeutic leucine, and various combinations of leucine, metformin, and resveratrol on liver weight and hepatic lipid accumulation were assessed. The 1.5 g/kg diet of metformin corresponds to a therapeutically effective dose of metformin in humans. […] Likewise, the 24 g/kg dose of leucine represents a sub-therapeutic dose that was predicted to exert no significant independent effects on liver mass or hepatic steatosis. […]
In this study, the effects of metformin alone (therapeutic dose) vs. combination therapy with sub-therapeutic amounts of metformin and leucine on liver weight and hepatic lipid accumulation were assessed. […]

[3] = test system: high fat diet-induced hepatic steatosis; assay: Liver weight after treatment of high fat diet-induced hepatic steatosis; format: in vivo, C57Bl/6 mice; conditions: HFD mice, six weeks, metformin 1.5 g/kg diet
Text: as §1
In this study, the effects of metformin alone (therapeutic dose), subtherapeutic metformin alone, subtherapeutic leucine, and various combinations of leucine, metformin, and resveratrol on liver weight and hepatic lipid accumulation were assessed. The 1.5 g/kg diet of metformin corresponds to a therapeutically effective dose of metformin in humans. […] Likewise, the 24 g/kg dose of leucine represents a sub-therapeutic dose that was predicted to exert no significant independent effects on liver mass or hepatic steatosis. Following induction of hepatic steatosis as described in Example 1, animals were treated according to the following treatment groups as depicted in Table 21:
(§2) In this study, the effects of metformin alone (therapeutic dose) vs. combination therapy with sub-therapeutic amounts of metformin and leucine on liver weight and hepatic lipid accumulation were assessed. Following induction of hepatic steatosis as described in Example 1, animals were treated for six weeks according to the following treatment groups as depicted in Table 22:

liver triglycerides = conditions: Example 3; HFD mice, six weeks; metformin alone 1.5 g/kg diet; combination: leucine + metformin 0.5 g/kg
Text: as §1, §2

[4] = test system: HFD-induced hepatic steatosis; assay: Prophylactic treatment concurrent with high fat diet feeding (Examples 6-8); format: in vivo, C57Bl/6 mice; conditions: treatments and HFD initiated on the same day, six weeks, doses as Tables 25-27
Procedure: C57Bl/6 mice are assigned to the following experimental groups as depicted in Table 25: Drug treatments and high fat diet feeding (as described in Example 1) are initiated on the same day and are carried out for six weeks. The effects of the treatments and diet on liver mass and hepatic lipid accumulation are assessed as described in the preceding examples. […] C57Bl/6 mice are assigned to the following experimental groups as depicted in Table 26: Drug treatments and high fat diet feeding (as described in Example 1) are initiated on the same day and are carried out for six weeks. The effects of the treatments and diet on liver mass and hepatic lipid accumulation are assessed as described in the preceding examples. […] In this study, the prophylactic effects of sub-therapeutic leucine alone, and co-administration of leucine and the PDE5-specific inhibitor icariin on liver mass and hepatic steatosis are assessed. C57Bl/6 mice are assigned to the following experimental groups as depicted in Table 27: Drug treatments and high fat diet feeding (as described in Example 1) are initiated on the same day and are carried out for six weeks. The effects of the treatments and diet on liver mass and hepatic lipid accumulation are assessed as described in the preceding examples.

| Compound | Effect on hepatic lipid accumulation [1] | Effect on liver mass [1] | Effect on hepatic steatosis (histological analysis) [2] | Effect on liver weight ([3]; Example 2, leucine 24 g/kg diet, resveratrol 12.5 mg/kg diet) | Effect on liver weight ([3]; Example 3) | Effect on liver weight ([3]; Example 4) | Effect on liver triglycerides (liver triglycerides) | Effect on HFD-induced hepatic lipid accumulation [4] | Effect on HFD-induced increase in liver mass [4] |
| --- | --- | --- | --- | --- | --- | --- | --- | --- | --- |
| COc1ccc(-c2oc3c(CC=C(C)C)c(O[C@@H]4O[C@H](CO)[C@@H](O)[C@H](O)[C@H]4O)cc(O)c3c(=O)c2O[C@@H]2O[C@@H](C)[C@H](O)[C@@H](O)[C@H]2O)cc1 [icariin] | no effect | no effect | – | – | – | – | – | – | – |
| metformin | – | – | partially reversed hepatic steatosis | partially reverse the effect of high fat diet on liver weight | reversed the effect of high fat diet on liver weight back to control levels | reversed the effect of high fat diet on liver weight back to control levels | partially reversed the effect of high fat diet on liver triglycerides | attenuates | attenuates |
